Marks after values point to notes of the source that are not given here.
What was measured:
COX-1 = COX-1 (UniProt P05979); assay type: biochemical, human; details: ± SD
Description: (§1) Rev. […] Thromb. Vasc. […] Rev. […] Rev. […] Rev. Oncol. Hematol. […] Curr. Pharm. Des. […] Luong, et al., Nat. Struct. […] A. and Marnett, L. J., Chem. Rev. […] Drug Discov. […] Biomol.

[1] = tested on: acetic acid-induced writhing; test: acetic acid-induced writhing test (peripheral analgesic); assay type: in vivo, albino mice; details: for 1/(observed property): 1/(% inhibition) peripheral analgesic; for Observed property: % inhibition/protection peripheral analgesic; for % Inhibition/protection: vs control; for % Inhibition/protection / Writing reflex ± SE: 10 mg/kg indomethacin mol equivalent i.p.; for Potency: % inhibition/protection compared to indomethacin; for Writing reflex ± SE: number of writhing counted for 30 min
Description: Peripheral analgesic activity was measured by the standard acetic acid-induced writhing test in mice. […] One hour after the i.p. administration, each mouse was injected with 0.1 ml of 1% acetic acid solution i.p. The control group animals were given sterile/distilled water with few drops of Tween 80. Starting 5 min after the acetic acid injection, the number of muscular contractions in each mouse was counted for 30 min. A significant reduction in the number of writhing by a conjugate compared with control animals was considered as a positive analgesic response. Percentage protection was calculated according to equ. (3), where n is the average number of writhing in the control group and n′ is the average number of writhing in the treated group. The % potency was calculated by equ. (4) (Table 2).

hot plate latency = test: hot plate test (central analgesic); assay type: in vivo, albino mice; details: for Observed property: % Protection central analgesic (120 min); for Latency period ± SE: 10 mg/kg indomethacin mol equivalent i.p., cutoff 15 seconds; for % Protection: vs control; for Potency: at 120 min. compared to indomethacin
Description: An in vivo standard hot plate test was performed. […] The control group animals were given sterile/distilled water with few drops of Tween 80. The maximum cutoff time was 15 seconds to prevent tissue damage. Response latencies were measured at 30, 60, 90 and 120 inns. The % protection was calculated by equ. (5), where, Ti, To are the latency time mean of the tested compound and control group respectively (Table 3).

gastric mucosa = test: ulcerogenic liability; details: for ulcers or erosions to the gastric / ulcerogenic liability (in words): mice; for ulcers or erosions to the gastric / ulcerogenic liability (in words) / % Incidence of ulcer divided by 10 / Average of ulcer number / Average severity of ulcer / Number of animals with ulcer: oral; for % Incidence of ulcer divided by 10 / Average of ulcer number / Average severity of ulcer / Number of animals with ulcer: three successive days, 10 mg/kg indomethacin mol equivalent; for Number of animals with ulcer: 6 animals; for Ulcer index: sum of the three values
Description: The ulcerogenic liability of conjugates was determined in albino mice following a standard method. Animals of either sex (pregnant females were excluded) weighing 20-25 g were divided into 8 groups of 6 animals each. The animals fasted 18 h before drug administration. […] The control group animals were given water with a few drops of Tween 80. The animals were sacrificed by cervical dislocation and the stomach was removed, opened along the greater curvature, and rinsed with saline. The gastric mucosa was examined with a magnifying lens (10×) for the presence of lesions and erosions. The ulcer index was calculated (Table 4) and the degree of ulcerogenic effect was expressed in terms of: (1) the percentage incidence of ulcers divided by 10; (2) average number of ulcers per stomach; and (3) average severity of ulcers. The ulcer index is the value that resulted from the sum of the above three values.

COX-2 = target: T1, COX-2 (Homo sapiens, UniProt P35354); test: Inhibition of COX-2; assay type: biochemical
T1 construct: purchased BioVision Incorporated K547-100 and K548-100 (for COX-1/2)
T1 sequence (P35354 18-604): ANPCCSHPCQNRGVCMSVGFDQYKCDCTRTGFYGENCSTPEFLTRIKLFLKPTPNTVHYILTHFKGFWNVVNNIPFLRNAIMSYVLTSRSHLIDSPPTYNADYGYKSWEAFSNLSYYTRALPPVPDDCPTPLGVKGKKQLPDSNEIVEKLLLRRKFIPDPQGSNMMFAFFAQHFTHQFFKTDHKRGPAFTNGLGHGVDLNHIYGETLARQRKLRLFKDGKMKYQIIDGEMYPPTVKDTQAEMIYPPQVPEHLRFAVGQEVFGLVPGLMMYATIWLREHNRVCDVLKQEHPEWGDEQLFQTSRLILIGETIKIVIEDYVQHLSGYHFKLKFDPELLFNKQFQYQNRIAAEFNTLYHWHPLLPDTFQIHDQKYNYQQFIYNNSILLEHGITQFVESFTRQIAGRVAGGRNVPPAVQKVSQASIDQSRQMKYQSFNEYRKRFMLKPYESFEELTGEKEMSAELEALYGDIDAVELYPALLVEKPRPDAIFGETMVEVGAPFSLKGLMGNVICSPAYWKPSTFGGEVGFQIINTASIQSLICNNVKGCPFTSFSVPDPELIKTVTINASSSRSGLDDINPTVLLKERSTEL
Description: as §1

Chain of COX-1 (P05979 whole entry): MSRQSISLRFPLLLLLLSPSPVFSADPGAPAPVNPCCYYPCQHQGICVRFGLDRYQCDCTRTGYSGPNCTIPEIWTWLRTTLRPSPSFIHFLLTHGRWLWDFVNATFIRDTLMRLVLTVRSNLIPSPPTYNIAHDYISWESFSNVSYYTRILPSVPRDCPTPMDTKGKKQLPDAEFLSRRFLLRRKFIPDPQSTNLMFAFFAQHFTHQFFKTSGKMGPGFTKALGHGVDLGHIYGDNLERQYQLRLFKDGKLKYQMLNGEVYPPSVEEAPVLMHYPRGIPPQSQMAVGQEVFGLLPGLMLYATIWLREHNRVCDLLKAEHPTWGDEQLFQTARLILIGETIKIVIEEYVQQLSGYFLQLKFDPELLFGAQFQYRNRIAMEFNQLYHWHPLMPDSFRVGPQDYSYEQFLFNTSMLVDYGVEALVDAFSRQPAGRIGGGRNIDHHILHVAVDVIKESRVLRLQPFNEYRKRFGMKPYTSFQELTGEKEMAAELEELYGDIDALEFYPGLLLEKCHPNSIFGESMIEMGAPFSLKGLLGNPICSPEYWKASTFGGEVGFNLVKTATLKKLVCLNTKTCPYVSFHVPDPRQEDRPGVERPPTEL

CC(C)Cc1ccc(C(C)C(=O)OCc2cn(-c3ccccc3Cl)nn2)cc1 (centres unmarked) [Compound 5a, (1-(2-Chlorophenyl)-1H-1,2,3-triazol-4-yl)methyl 2-(4-isobutylphenyl)propanoate]
IC50 (COX-1): 17.2 ± 0.41 µM | 1/(observed property) [1]: 0.01201 | Observed property [1]: 83.3 | % Inhibition/protection [1]: 83.3% | Observed property (hot plate latency): 54.5 | ulcers or erosions to the gastric / ulcerogenic liability (in words) (gastric mucosa): none and No ulcerogenic liability | % Incidence of ulcer divided by 10 (gastric mucosa): 0 | Average of ulcer number (gastric mucosa): 0 | Average severity of ulcer (gastric mucosa): 0 | Number of animals with ulcer (gastric mucosa): 0 | Ulcer index (gastric mucosa): 0

CC(C)Cc1ccc(C(C)C(=O)OCc2cn(-c3ccc(Cl)cc3)nn2)cc1 (centres unmarked) [Compound 5b, (1-(4-Chlorophenyl)-1H-1,2,3-triazol-4-yl)methyl 2-(4-isobutylphenyl)propanoate]
IC50 (COX-1): 119 ± 3.4 µM | 1/(observed property) [1]: 0.01143 | Observed property [1]: 87.5 | % Inhibition/protection [1]: 87.5% | Observed property (hot plate latency): 27.1 | ulcers or erosions to the gastric / ulcerogenic liability (in words) (gastric mucosa): none and No ulcerogenic liability | % Incidence of ulcer divided by 10 (gastric mucosa): 0 | Average of ulcer number (gastric mucosa): 0 | Average severity of ulcer (gastric mucosa): 0 | Number of animals with ulcer (gastric mucosa): 0 | Ulcer index (gastric mucosa): 0

CC(C)Cc1ccc(C(C)C(=O)OCc2cn(-c3ccc(F)cc3)nn2)cc1 (centres unmarked) [Compound 5c, (1-(4-Fluorophenyl)-1H-1,2,3-triazol-4-yl)methyl 2-(4-isobutylphenyl)propanoate]
1/(observed property) [1]: 0.01201 | Observed property [1]: 83.3 | Observed property (hot plate latency): 18 | % protection compared with parent compound ibuprofen (hot plate latency; at 30 min): 1.8 folds

Cc1ccc(-n2cc(COC(=O)C(C)c3ccc(CC(C)C)cc3)nn2)cc1 (centres unmarked) [Compound 5d, (1-(p-Tolyl)-1H-1,2,3-triazol-4-yl)methyl 2-(4-isobutylphenyl)propanoate]
IC50 (COX-1): 9.64 ± 0.27 µM | 1/(observed property) [1]: 0.01212 | Observed property [1]: 82.5 | Observed property (hot plate latency): 1.2 | SI (COX-2; SI=IC50 (COX-1)/IC50 (COX-2)): 2.158 | IC50 (COX-2; ± SD): 4.47 ± 0.13 µM | ulcers or erosions to the gastric / ulcerogenic liability (in words) (gastric mucosa): none and No ulcerogenic liability | % Incidence of ulcer divided by 10 (gastric mucosa): 0 | Average of ulcer number (gastric mucosa): 0 | Average severity of ulcer (gastric mucosa): 0 | Number of animals with ulcer (gastric mucosa): 0 | Ulcer index (gastric mucosa): 0

COc1ccc(-n2cc(COC(=O)C(C)c3ccc(CC(C)C)cc3)nn2)cc1 (centres unmarked) [Compound 5f, (1-(4-Methoxyphenyl)-1H-1,2,3-triazol-4-yl)methyl 2-(4-isobutylphenyl)propanoate]
1/(observed property) [1]: 0.0125 | Observed property [1]: 80.0 | Observed property (hot plate latency): 0.2

CC(C)Cc1ccc(C(C)C(=O)OCc2cn(-c3ccc([N+](=O)[O-])cc3)nn2)cc1 (centres unmarked) [Compound 5g, (1-(4-Nitrophenyl)-1H-1,2,3-triazol-4-yl)methyl 2-(4-isobutylphenyl)propanoate]
1/(observed property) [1]: 0.01538 | Observed property [1]: 65.0 | Observed property (hot plate latency): 28.1

C#CCOC(=O)Cc1c(C)n(C(=O)c2ccc(Cl)cc2)c2ccc(OC)cc12 [Compound 7, prop-2-yn-1-yl 2-(1-(4-chlorobenzoyl)-5-methoxy-2-methyl-1H-indol-3-yl) acetate]
Potency [1]: 124.4% | Writing reflex ± SE [1]: 4.3 ± 0.5 | % Inhibition/protection [1]: 89.3% | Latency period ± SE (hot plate latency; After 30 min.): 6.68 s | % Protection (hot plate latency; After 30 min.): 2.0* (0.0) % | Latency period ± SE (hot plate latency; After 60 min.): 9.54 ± 1.6 s | % Protection (hot plate latency; After 60 min.): (31.2) % | Latency period ± SE (hot plate latency; After 90 min.): 11.18 ± 1.5 s | % Protection (hot plate latency; After 90 min.): (25.5) % | Latency period ± SE (hot plate latency; After 120 min.): 10.78 ± 1.8 s | % Protection (hot plate latency; After 120 min.): (19.6) % | Potency (hot plate latency): 34.7%

COc1ccc2c(c1)c(CC(=O)OCc1cn(-c3ccccc3Cl)nn1)c(C)n2C(=O)c1ccc(Cl)cc1 [Compound 8a, (1-(2-Chlorophenyl)-1H-1,2,3-triazol-4-yl)methyl 2-(1-(4-chlorobenzoyl)-5-methoxy-2-methyl-H-indol-3-yl)acetate]
1/(observed property) [1]: 0.02028 | Potency [1]: 68.7% | Observed property [1]: 49.3 | Writing reflex ± SE [1]: 20.3 ± 1.8 | % Inhibition/protection [1]: 49.3% | Observed property (hot plate latency): 51.3 | Latency period ± SE (hot plate latency; After 30 min.): 12.19 s | % Protection (hot plate latency; After 30 min.): (82.5) % | Latency period ± SE (hot plate latency; After 60 min.): 13.51 s | % Protection (hot plate latency; After 60 min.): 1.7** (85.8) % | Latency period ± SE (hot plate latency; After 90 min.): 13.85 ± 1.4 s | % Protection (hot plate latency; After 90 min.): (55.4) % | Latency period ± SE (hot plate latency; After 120 min.): 13.63 ± 1.3 s | % Protection (hot plate latency; After 120 min.): (51.3) % | Potency (hot plate latency): 90.8%

COc1ccc2c(c1)c(CC(=O)OCc1cn(-c3ccc(Cl)cc3)nn1)c(C)n2C(=O)c1ccc(Cl)cc1 [Compound 8b, (1-(4-Chlorophenyl)-1H-1,2,3-triazol-4-yl)methyl 2-(1-(4-chlorobenzoyl)-5-methoxy-2-methyl-1H-indol-3-yl)acetate]
1/(observed property) [1]: 0.0216 | Observed property [1]: 46.3 | Observed property (hot plate latency): 9.7

COc1ccc2c(c1)c(CC(=O)OCc1cn(-c3ccc(F)cc3)nn1)c(C)n2C(=O)c1ccc(Cl)cc1 [Compound 8c, (1-(4-Fluorophenyl)-1H-1,2,3-triazol-4-yl)methyl 2-(1-(4-chlorobenzoyl)-5-methoxy-2-methyl-1H-indol-3-yl)acetate]
1/(observed property) [1]: 0.02421 | Observed property [1]: 41.3 | Observed property (hot plate latency): 48.1

COc1ccc2c(c1)c(CC(=O)OCc1cn(-c3ccc(C)cc3)nn1)c(C)n2C(=O)c1ccc(Cl)cc1 [Compound 8d, (1-(p-Tolyl)-1H-1,2,3-triazol-4-yl)methyl 2-(1-(4-chlorobenzoyl)-5-methoxy-2-methyl-1H-indol-3-yl)acetate]
1/(observed property) [1]: 0.016 | Observed property [1]: 62.5 | Observed property (hot plate latency): 48.6

COc1ccc2c(c1)c(CC(=O)OCc1cn(-c3ccccc3OC)nn1)c(C)n2C(=O)c1ccc(Cl)cc1 [Compound 8e, (1-(2-Methoxyphenyl)-1H-1,2,3-triazol-4-yl)methyl 2-(1-(4-chlorobenzoyl)-5-methoxy-2-methyl-1H-indol-3-yl)acetate]
1/(observed property) [1]: 0.01238 | Observed property [1]: 80.8 | Observed property (hot plate latency): 28.9

COc1ccc(-n2cc(COC(=O)Cc3c(C)n(C(=O)c4ccc(Cl)cc4)c4ccc(OC)cc34)nn2)cc1 [Compound 8f, (1-(4-Methoxyphenyl)-1H-1,2,3-triazol-4-yl)methyl 2-(1-(4-chlorobenzoyl)-5-methoxy-2-methyl-1H-indol-3-yl)acetate]
1/(observed property) [1]: 0.01497 | Observed property [1]: 66.8 | Observed property (hot plate latency): 66.5

COc1ccc2c(c1)c(CC(=O)OCc1cn(-c3ccc([N+](=O)[O-])cc3)nn1)c(C)n2C(=O)c1ccc(Cl)cc1 [Compound 8g, (1-(4-Nitrophenyl)-1H-1,2,3-triazol-4-yl)methyl 2-(1-(4-chlorobenzoyl)-5-methoxy-2-methyl-1H-indol-3-yl)acetate]
1/(observed property) [1]: 0.01038 | Observed property [1]: 96.3 | Observed property (hot plate latency): 2.7

CC(C)Cc1ccc(C(C)C(=O)O)cc1 (centres unmarked) [Ibu, 2-(4-isobutylphenyl)propanoic acid, reference compound]
Potency [1]: 81.5% | % Inhibition/protection [1]: 58.5% | % Protection (hot plate latency; After 30 min.): (61.7) % | % Protection (hot plate latency; After 120 min.): (54.3) % | Potency (hot plate latency): 96.1% | % Incidence of ulcer divided by 10 (gastric mucosa): 3.33 | Average of ulcer number (gastric mucosa): 0.33 | Average severity of ulcer (gastric mucosa): 0.67 | Number of animals with ulcer (gastric mucosa): 2/6

— patent US20260098019A1, “SYNTHESIS OF NSAID CONJUGATES AS ANTI-INFLAMMATORY AGENTS USING THE MOLECULAR HYBRIDIZATION” (AUGUSTA UNIVERSITY RESEARCH INSTITUTE, INC., priority 2022, published 2026)
